Assay results reported in ChEMBL document CHEMBL5726212, “Substituted pyridines as inhibitors of human immunodeficiency virus replication” (2019).

Assay: Inhibition of HIV replication: A recombinant NL-RLuc proviral clone was constructed in which a section of the nef gene from NL4-3 was replaced with the Renilla Luciferase gene. This virus is fully infectious and can undergo multiple cycles of replication in cell culture. In addition, the luciferous reporter provides a simple and easy method for quantitating the extent of virus growth and consequently, the antiviral activity of test compounds. The plasmid pNLRLuc contains the proviral NL-Rluc DNA cloned into pUC18 at the PvuII site. The NL-RLuc virus was prepared by transfection of 293T cells with the plasmid pNLRLuc. Transfections were performed using the LipofectAMINE PLUS kit from Invitrogen (Carlsbad, Calif.) according to the manufacturer and the virus generated was titered in MT-2 cells. For susceptibility analyses, the titrated virus was used to infect MT-2 cells in the presence of compound, and after 5 days of incubation, cells were processed and quantitated for virus growth by the amount of expressed luciferase. Assay media was RPMI 1640 supplemented with 10% heat inactivated fetal bovine serum (FBS), 100 units/ml penicillin G/100 units/ml streptomycin, 10 mM HEPES buffer pH 7.55 and 2 mM L-glutamine. The results from at least 2 experiments were used to calculate the EC50 values. Luciferase was quantitated using the Dual Luciferase kit from Promega (Madison, Wis.). Susceptibility of viruses to compounds was determined by incubation in the presence of serial dilutions of the compound. The 50% effective concentration (EC50) was calculated by using the exponential form of the median effect equation where (Fa)=1/[1+(ED50/drug conc.)m] (Johnson V A, Byington R T. Infectivity Assay. In Techniques in HIV Research. ed. Aldovini A, Walker B D. 71-76. New York: Stockton Press.1990).
Assay type: cell-based

With `COc1cc(F)c(CN2CCc3cc(-c4c(C)nc(C)c([C@H](OC(C)(C)C)C(=O)O)c4N4CCC(C)(C)CC4)ccc3C2)c(F)c1` the EC50 was < 100 nM and the EC50 (HEK-293T) was < 100 nM.
For `COc1cc(F)cc(F)c1CN1CCc2cc(-c3c(C)nc(C)c([C@H](OC(C)(C)C)C(=O)O)c3N3CCC(C)(C)CC3)ccc2C1`, the EC50 was < 100 nM and the EC50 (HEK-293T) was < 100 nM.
For `Cc1ccc(CN2CCc3cc(-c4c(C)nc(C)c([C@H](OC(C)(C)C)C(=O)O)c4N4CCC(C)(C)CC4)ccc3C2)cc1C`, the EC50 was < 100 nM and the EC50 (HEK-293T) was < 100 nM.
